# Activity calls are given as the source filed them. No rule for the calls is given here.
# Experiments:
# Assay in all cases: off-target binding across PDSP receptor panel, profiling panel, selectivity assay for NOX1 inhibitor project, biochemical, radioligand binding (AID 434974)
# [1] = target: 5-hydroxytryptamine receptor 2B (Homo sapiens) (UniProt P41595); conditions: receptor displacement, Serotonin receptor 5ht2b, at 10 µM, active compounds read high
# [2] = tested on: Adrenergic receptor Alpha1A; conditions: receptor displacement, at 10 µM, active compounds read high
# [3] = tested on: Adrenergic receptor Alpha1B; conditions: receptor displacement, at 10 µM, active compounds read high
# [4] = tested on: Adrenergic receptor Alpha1D; conditions: receptor displacement, at 10 µM, active compounds read high
# [5] = tested on: Adrenergic receptor Beta1; conditions: receptor displacement, at 10 µM, active compounds read high
# [6] = tested on: Adrenergic receptor Beta3; conditions: receptor displacement, at 10 µM, active compounds read high
# [7] = target: Alpha-2A adrenergic receptor (Homo sapiens) (UniProt P08913); conditions: receptor displacement, Adrenergic receptor Alpha2A, at 10 µM, active compounds read high
# Chain of Alpha-2A adrenergic receptor (Homo sapiens) (P08913 whole entry, looked up): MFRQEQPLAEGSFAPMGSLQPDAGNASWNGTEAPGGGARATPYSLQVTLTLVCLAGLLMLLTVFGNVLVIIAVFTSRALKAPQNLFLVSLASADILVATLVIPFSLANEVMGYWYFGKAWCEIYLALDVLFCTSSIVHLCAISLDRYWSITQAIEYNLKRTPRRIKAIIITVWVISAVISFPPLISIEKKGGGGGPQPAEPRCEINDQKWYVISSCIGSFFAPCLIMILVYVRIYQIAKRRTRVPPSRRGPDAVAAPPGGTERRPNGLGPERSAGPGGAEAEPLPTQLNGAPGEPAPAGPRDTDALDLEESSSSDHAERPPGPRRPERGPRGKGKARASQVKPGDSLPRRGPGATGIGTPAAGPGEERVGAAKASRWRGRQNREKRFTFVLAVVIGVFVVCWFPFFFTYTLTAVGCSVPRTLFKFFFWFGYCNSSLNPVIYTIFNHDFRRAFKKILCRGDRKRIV
# [8] = target: Alpha-2B adrenergic receptor (Homo sapiens) (UniProt P18089); conditions: receptor displacement, Adrenergic receptor Alpha2B, at 10 µM, active compounds read high
# Chain of Alpha-2B adrenergic receptor (Homo sapiens) (P18089 whole entry, looked up): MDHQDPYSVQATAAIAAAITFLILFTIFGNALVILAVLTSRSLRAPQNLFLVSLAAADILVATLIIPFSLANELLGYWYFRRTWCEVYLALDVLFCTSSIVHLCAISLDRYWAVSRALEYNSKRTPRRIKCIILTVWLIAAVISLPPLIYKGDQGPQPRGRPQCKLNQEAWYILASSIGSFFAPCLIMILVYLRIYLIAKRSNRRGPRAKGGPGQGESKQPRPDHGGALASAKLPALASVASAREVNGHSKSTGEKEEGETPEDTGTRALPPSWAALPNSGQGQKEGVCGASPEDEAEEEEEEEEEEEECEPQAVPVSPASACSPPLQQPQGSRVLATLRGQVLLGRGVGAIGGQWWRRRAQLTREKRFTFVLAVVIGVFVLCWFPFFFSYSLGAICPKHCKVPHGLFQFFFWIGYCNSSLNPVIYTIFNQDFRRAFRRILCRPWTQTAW
# [9] = target: Alpha-2C adrenergic receptor (Homo sapiens) (UniProt P18825); conditions: receptor displacement, Adrenergic receptor Alpha2C, at 10 µM, active compounds read high
# Chain of Alpha-2C adrenergic receptor (Homo sapiens) (P18825 whole entry, looked up): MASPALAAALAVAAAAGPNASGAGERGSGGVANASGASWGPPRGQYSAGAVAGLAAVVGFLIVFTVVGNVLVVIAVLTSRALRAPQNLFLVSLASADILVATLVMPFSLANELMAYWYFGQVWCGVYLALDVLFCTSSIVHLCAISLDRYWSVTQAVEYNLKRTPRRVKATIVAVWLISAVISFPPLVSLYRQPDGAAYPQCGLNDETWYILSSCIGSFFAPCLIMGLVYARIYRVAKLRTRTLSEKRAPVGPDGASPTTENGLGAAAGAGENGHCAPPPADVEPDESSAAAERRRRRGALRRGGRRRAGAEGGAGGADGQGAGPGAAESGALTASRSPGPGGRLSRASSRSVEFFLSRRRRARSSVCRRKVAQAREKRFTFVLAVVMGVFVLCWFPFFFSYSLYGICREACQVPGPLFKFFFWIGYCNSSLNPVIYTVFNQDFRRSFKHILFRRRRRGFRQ
# BZP Rat Brain Site = conditions: receptor displacement, at 10 µM, active compounds read high
# [10] = target: Beta-2 adrenergic receptor (Homo sapiens) (UniProt P07550); conditions: receptor displacement, Adrenergic receptor Beta2, at 10 µM, active compounds read high
# Chain of Beta-2 adrenergic receptor (Homo sapiens) (P07550 whole entry, looked up): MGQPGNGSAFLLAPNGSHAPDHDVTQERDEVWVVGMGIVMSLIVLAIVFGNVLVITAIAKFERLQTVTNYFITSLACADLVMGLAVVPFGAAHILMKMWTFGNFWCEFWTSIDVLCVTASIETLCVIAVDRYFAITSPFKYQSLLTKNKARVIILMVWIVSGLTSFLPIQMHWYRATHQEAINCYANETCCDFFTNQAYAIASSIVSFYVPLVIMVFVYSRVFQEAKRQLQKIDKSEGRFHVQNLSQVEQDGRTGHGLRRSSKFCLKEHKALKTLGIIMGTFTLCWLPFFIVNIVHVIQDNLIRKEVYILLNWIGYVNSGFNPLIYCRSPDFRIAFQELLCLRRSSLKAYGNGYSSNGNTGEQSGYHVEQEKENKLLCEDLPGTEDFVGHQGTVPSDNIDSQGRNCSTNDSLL
# [11] = tested on: Biogenic amine transporter DAT; conditions: receptor displacement, at 10 µM, active compounds read high
# [12] = tested on: Biogenic amine transporter NET; conditions: receptor displacement, at 10 µM, active compounds read high
# [13] = tested on: Biogenic amine transporter SERT; conditions: receptor displacement, at 10 µM, active compounds read high
# Ca+ Channel = conditions: receptor displacement, at 10 µM, active compounds read high
# [14] = target: Cannabinoid receptor 2 (Homo sapiens) (UniProt P34972); conditions: receptor displacement, Cannabinoid receptor CB2, at 10 µM, active compounds read high
# Chain of Cannabinoid receptor 2 (Homo sapiens) (P34972 whole entry, looked up): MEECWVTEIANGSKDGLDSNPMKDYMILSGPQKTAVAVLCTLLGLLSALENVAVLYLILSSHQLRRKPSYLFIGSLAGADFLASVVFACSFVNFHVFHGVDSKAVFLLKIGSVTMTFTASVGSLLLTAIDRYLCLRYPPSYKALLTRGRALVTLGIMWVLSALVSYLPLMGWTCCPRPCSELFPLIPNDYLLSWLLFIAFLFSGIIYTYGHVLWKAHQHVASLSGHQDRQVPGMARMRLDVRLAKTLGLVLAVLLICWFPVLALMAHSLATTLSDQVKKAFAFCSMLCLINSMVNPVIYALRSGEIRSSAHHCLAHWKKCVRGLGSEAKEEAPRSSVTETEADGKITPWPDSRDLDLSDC
# Cannabinoid receptor CB1 = conditions: receptor displacement, at 10 µM, active compounds read high
# [15] = target: D(1A) dopamine receptor (Homo sapiens) (UniProt P21728); conditions: receptor displacement, Dopamine receptor D1, at 10 µM, active compounds read high
# Chain of D(1A) dopamine receptor (Homo sapiens) (P21728 whole entry, looked up): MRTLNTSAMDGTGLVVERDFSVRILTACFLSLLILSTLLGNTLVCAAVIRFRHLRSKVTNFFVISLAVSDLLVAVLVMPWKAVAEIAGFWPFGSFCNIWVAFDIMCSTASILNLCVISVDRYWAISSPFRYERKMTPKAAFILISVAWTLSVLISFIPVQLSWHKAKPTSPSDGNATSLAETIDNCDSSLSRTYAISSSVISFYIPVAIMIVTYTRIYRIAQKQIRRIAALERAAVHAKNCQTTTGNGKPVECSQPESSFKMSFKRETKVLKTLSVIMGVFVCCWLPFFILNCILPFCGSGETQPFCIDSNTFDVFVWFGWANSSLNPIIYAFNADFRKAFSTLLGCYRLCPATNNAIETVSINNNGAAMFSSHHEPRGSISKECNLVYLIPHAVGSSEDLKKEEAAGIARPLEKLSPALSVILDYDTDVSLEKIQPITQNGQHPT
# [16] = target: D(1B) dopamine receptor (Homo sapiens) (UniProt P21918); conditions: receptor displacement, Dopamine receptor D5, at 10 µM, active compounds read high
# Chain of D(1B) dopamine receptor (Homo sapiens) (P21918 whole entry, looked up): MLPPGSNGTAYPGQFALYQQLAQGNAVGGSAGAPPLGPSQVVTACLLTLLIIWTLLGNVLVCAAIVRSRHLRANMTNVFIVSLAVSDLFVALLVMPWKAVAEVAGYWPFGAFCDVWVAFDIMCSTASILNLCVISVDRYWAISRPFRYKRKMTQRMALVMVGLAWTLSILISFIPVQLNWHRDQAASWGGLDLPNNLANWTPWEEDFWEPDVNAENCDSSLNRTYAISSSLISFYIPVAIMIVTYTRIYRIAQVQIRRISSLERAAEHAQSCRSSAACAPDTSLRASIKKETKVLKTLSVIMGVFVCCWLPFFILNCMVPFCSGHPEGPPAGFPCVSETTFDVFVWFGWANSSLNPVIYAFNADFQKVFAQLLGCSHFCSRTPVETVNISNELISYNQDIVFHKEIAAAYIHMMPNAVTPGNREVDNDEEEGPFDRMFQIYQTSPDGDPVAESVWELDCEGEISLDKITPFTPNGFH
# [17] = target: D(3) dopamine receptor (Homo sapiens) (UniProt P35462); conditions: receptor displacement, Dopamine receptor D3, at 10 µM, active compounds read high
# Chain of D(3) dopamine receptor (Homo sapiens) (P35462 whole entry, looked up): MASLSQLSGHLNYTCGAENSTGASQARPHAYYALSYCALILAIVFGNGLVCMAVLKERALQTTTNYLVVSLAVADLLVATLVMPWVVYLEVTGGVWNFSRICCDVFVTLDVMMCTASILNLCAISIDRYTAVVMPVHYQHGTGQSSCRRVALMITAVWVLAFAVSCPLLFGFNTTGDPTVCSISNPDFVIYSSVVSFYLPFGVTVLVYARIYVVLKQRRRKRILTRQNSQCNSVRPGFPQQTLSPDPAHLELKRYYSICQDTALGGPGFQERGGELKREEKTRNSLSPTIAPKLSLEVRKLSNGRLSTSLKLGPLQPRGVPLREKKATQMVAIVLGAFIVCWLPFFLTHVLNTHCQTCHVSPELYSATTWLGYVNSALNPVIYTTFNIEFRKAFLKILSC
# [18] = target: Delta-type opioid receptor (Homo sapiens) (UniProt P41143); conditions: receptor displacement, Opioid receptor DOR, at 10 µM, active compounds read high
# Chain of Delta-type opioid receptor (Homo sapiens) (P41143 whole entry, looked up): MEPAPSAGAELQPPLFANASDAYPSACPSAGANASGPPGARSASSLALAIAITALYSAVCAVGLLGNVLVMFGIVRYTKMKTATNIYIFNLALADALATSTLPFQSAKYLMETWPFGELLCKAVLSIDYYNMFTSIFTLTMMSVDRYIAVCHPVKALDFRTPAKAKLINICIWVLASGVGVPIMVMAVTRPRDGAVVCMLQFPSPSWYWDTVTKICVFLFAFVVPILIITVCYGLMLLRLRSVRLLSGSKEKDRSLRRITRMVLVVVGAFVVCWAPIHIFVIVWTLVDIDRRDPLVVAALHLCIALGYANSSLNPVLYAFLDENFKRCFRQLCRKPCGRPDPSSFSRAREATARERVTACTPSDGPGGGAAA
# Dopamine receptor D2 = conditions: receptor displacement, at 10 µM, active compounds read high
# Dopamine receptor D4 = conditions: receptor displacement, at 10 µM, active compounds read high
# GABA receptor GABAa a1 = conditions: receptor displacement, at 10 µM, active compounds read high
# GABA receptor GABAa = conditions: receptor displacement, at 10 µM, active compounds read high
# GABA receptor PBR = conditions: receptor displacement, at 10 µM, active compounds read high
# [19] = tested on: Glutamate receptor NMDA PCP site; conditions: receptor displacement, at 10 µM, active compounds read high
# Histamine receptor H1 = conditions: receptor displacement, at 10 µM, active compounds read high
# Histamine receptor H2 = conditions: receptor displacement, at 10 µM, active compounds read high
# Histamine receptor H3 = conditions: receptor displacement, at 10 µM, active compounds read high
# Histamine receptor H4 = conditions: receptor displacement, at 10 µM, active compounds read high
# Chain of 5-hydroxytryptamine receptor 2B (Homo sapiens) (P41595 whole entry, looked up): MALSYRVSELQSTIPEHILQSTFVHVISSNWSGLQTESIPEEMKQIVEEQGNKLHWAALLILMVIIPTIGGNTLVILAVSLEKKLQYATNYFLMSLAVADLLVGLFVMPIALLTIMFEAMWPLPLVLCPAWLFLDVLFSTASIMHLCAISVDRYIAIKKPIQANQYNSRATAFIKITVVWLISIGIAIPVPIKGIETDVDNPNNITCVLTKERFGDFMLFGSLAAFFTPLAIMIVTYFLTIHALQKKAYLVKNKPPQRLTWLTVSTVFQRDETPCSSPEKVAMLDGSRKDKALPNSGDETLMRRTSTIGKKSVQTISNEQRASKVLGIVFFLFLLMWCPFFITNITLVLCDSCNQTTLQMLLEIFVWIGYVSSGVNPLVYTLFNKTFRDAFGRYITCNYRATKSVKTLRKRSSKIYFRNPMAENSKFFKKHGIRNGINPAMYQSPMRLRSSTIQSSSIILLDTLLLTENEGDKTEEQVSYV
smiles,measurement,setting,value
CN1c2ccccc2Sc2cc(N)ccc21,inhibition,[1],84.3%
same,inhibition,[2],36.3% (inactive)
same,inhibition,[3],38.4% (inactive)
same,inhibition,[4],23.8% (inactive)
same,inhibition,[5],23.5% (inactive)
same,inhibition,[6],3.5% (inactive)
same,inhibition,[7],50.7%
same,inhibition,[8],58.8%
same,inhibition,[9],98.2%
same,inhibition,BZP Rat Brain Site,44.8% (inactive)
same,inhibition,[10],-0.9% (inactive)
same,inhibition,[11],16% (inactive)
same,inhibition,[12],60.5%
same,inhibition,[13],16.4% (inactive)
same,inhibition,Ca+ Channel,-19.4% (inactive)
same,inhibition,[14],3.8% (inactive)
same,inhibition,Cannabinoid receptor CB1,5% (inactive)
same,inhibition,[15],23.6% (inactive)
same,inhibition,[16],16.8% (inactive)
same,inhibition,[17],59.2%
same,inhibition,[18],-0.5% (inactive)
same,inhibition,Dopamine receptor D2,22.6% (inactive)
same,inhibition,Dopamine receptor D4,34.7% (inactive)
same,inhibition,GABA receptor GABAa a1,16.2% (inactive)
same,inhibition,GABA receptor GABAa,25% (inactive)
same,inhibition,GABA receptor PBR,32.1% (inactive)
same,inhibition,[19],25% (inactive)
same,inhibition,Histamine receptor H1,46.4% (inactive)
same,inhibition,Histamine receptor H2,43% (inactive)
same,inhibition,Histamine receptor H3,-2.4% (inactive)
same,inhibition,Histamine receptor H4,10.1% (inactive)

# From PubChem BioAssay AID434974 (The Scripps Research Institute Molecular Screening Center, 2010)
